From patent US20240415967A1, “DEGRADABLE NEAR-INFRARED PHOTOSENSITIZERS, PREPARATION METHODS, APPLICATIONS THEREOF” (BEIJING INSTITUTE OF COLLABORATIVE INNOVATION, priority 2021, published 2024)

Assays:
[1] = UV-visible absorption and emission spectrum scanning (photophysical property); type: physicochemical; conditions: light excitation, FIG. 8
Description: A UV-visible absorption spectrum scanning and an emission spectrum scanning were performed on the target product prepared in Embodiment 3, and the scanning results are shown in FIGS. 7 and 8. […] Therefore, the target product may include a deep tissue penetration depth in photodynamic therapy or in vivo fluorescence imaging.

[2] = Detection of superoxide anion free radicals with dihydroethidium (DHE) probe under irradiation; type: physicochemical; conditions: water solution 10 μM, air atmosphere, 700 nm LED 1.25 mW/cm^2
Description: Under an air atmosphere, dihydroethidium (DHE) was added to a water solution (10 μM) of the target product prepared in Embodiment 3 as a probe of superoxide anion free radicals, and an irradiation condition was a 700 nm light-emitting diode lamp of 1.25 mW/cm^2, a fluorescence of ethidium oxide generated by an oxidation of the DHE by the superoxide radicals was detected, and a fluorescence intensity enhanced with the increase of an irradiation time.

[3] = Detection of singlet oxygen with 1,3-diphenylisobenzofuran (DPBF) capture spectrophotometry; type: physicochemical; conditions: DPBF absorbance at 416 nm, 700 nm LED 1.25 mW/cm^2
Description: A phosphorescence emission of singlet oxygen was easily quenched by water molecules, and the singlet oxygen generated by the target product was detected by using chemical capture spectrophotometry. 1,3-diphenylisobenzofuran (DPBF) was one of the most commonly used singlet oxygen capture agents, and 1,3-diphenylisobenzofuran reacted with the singlet oxygen rapidly to generate a colorless substance, and a content of the singlet oxygen may be reflected by detecting a variation of an absorbance of the 1,3-diphenylisobenzofuran (DPBF) at a characteristic absorption peak (416 nm) using the UV-visible absorption spectrum. An irradiation condition was a 700 nm light-emitting diode (LED) lamp of 1.25 mW/cm^2, a characteristic absorption of the 1,3-diphenylisobenzofuran (DPBF) at the characteristic absorption peak of 416 nm was gradually weakened.

[4] = Monitoring of self-degradation / photodegradation of the photosensitizer in solution (UV-vis, emission, HPLC); type: physicochemical
Description: In the test of Embodiment 7, an irradiation condition was the 700 nm light-emitting diode lamp of 1.25 mW/cm^2 for 0 min-2 min, the characteristic absorption of 1,3-diphenylisobenzofuran (DPBF) at the characteristic absorption peak of 416 nm was gradually weakened.
The target product obtained in Embodiment 3 was placed under a light-emitting diode lamp for irradiation, and an irradiation condition was 700 nm of 10 mW/cm^2, and the UV-visible absorption spectrum and an emission spectrum of the target product were recorded during irradiation.
As a control, the reference compound prepared in Embodiment 4 was placed under a light-emitting diode lamp for irradiation, the irradiation condition was 640 nm, 10 mW/cm^2, and the UV-visible absorption spectrum and the emission spectrum of the reference compound were recorded during irradiation.

[5] = system: HeLa human cervical cancer cells; assay: Detection of cellular phototoxicity (CCK-8 cell viability); type: cell-based; conditions: 700 nm LED 2.5 mW/cm^2 for 10 min
Description: The cells used in the experiment were HeLa human cervical cancer cells. Cell culture was performed in a DMEM complete culture medium (purchased from Genye, 500 mL) supplemented with 10% inactivated fetal bovine serum (purchased from Shuohua, 500 mL) with 1% penicillin-streptomycin (purchased from Corning, 100 mL) at a temperature of 37° C. and an atmosphere of 5% carbon dioxide.
Sub-cultured Hela cells were digested by trypsin and dispersed in the culture medium at an appropriate concentration. […]
100 μL of PBS buffer was added to each well, and an irradiation condition was a 700 nm light-emitting diode lamp of 2.5 mW/cm^2 for 10 min. […] During this process, a monosodium salt of 2-(2-methoxy-4-nitrophenyl)-3-(4-nitrophenyl)-5-(2,4-disulfonate phenyl)-2H-tetrazolium (WST-8) in the CCK-8 reagent with an electron coupling reagent may be reduced to a water-soluble yellow formazan product by living cells, which causes an absorbance of the solution at 450 nm to vary, and values of variation may be proportional to a count of living cells. The variation of the absorbance at 450 nm of each well was measured using an enzyme labeling apparatus, and a cell viability at each incubation concentration was calculated according to a formula: […]

[6] = system: HeLa human cervical cancer cells; assay: Medicine phototherapy at an animal level (subcutaneous tumor model); type: in vivo, BALB/C nude mice; conditions: 0.2 mg/kg in situ injection, 2 weeks
Description: All animal experiments in the in vivo experiments were performed in strict compliance with the Chinese regulations for animal experiments using BALB/C nude mice, 5 weeks of age of the mouse, male, and a range of 16 g-25 g of body weight. Each mouse was subcutaneously inoculated with 100 uL of HeLa human cervical cancer cells in the right hind limb (5×10^6) to construct the tumor model, and the experiments were performed two weeks later.
Mice were randomly grouped by number, and the experiment was divided into an irradiation control group (including irradiation), a dark control group (including a target product; and a degradation product), and an experimental group (including target product+irradiation; and degradation product+irradiation), with six mice in each group. The dark control and experimental groups were administered by in situ injection, respectively: a dose of 0.2 mg/kg was administered, and 20 μL (0.2 mg/ml) of PBS solution of the target product or degradation product was injected in situ. After 30 min, the irradiation control and experimental groups were irradiated, and an irradiation condition was a 700 nm light-emitting diode lamp of 100 mW/cm^2, and 10 min of irradiation per mouse. The six mice were not given a light-avoidance process after therapy and were put into rearing cages to continue to feed, and every two days, a tumor volume was measured by vernier calipers and the body weight was weighed. The mice were therapized for 2 weeks.

[7] = Photosensitization side effects of a photosensitizer at an animal level; type: in vivo, BALB/C nude mice; conditions: 0.2 mg/kg subcutaneous, site irradiated 10 min (700 nm target product, 640 nm reference compound, 100 mW/cm^2), then simulated natural light 10 mW/cm^2 for 1 hour
Description: All animal experiments in the in vivo experiments were performed in strict compliance with the Chinese regulations for animal experiments, using BALB/C nude mice, 5 weeks of age of the mouse, male, and a range of 16 g-25 g of body weight.
The mice were randomly grouped by number, and the experiment was divided into a target product group, a reference compound group, and an irradiation control group, with 3 mice in each group. Each of the mice was injected subcutaneously into an abdomen with 20 μL (0.2 mg/mL) of the target product, reference compound solution, or PBS solution, and an administered dose was 0.2 mg/kg. After the injection, a site of administration was irradiated, an irradiation condition of the target product was a 700 nm light-emitting diode lamp, and an irradiation condition of the reference compound was a 640 nm light-emitting diode lamp of 100 mW/cm^2, each of the mice was irradiated for 10 min, and no processing was performed in the irradiation control group. The state of the mouse was observed and a body temperature of the mouse was recorded with a thermal imager. Further, the three groups of mice were exposed to a simulated natural light of 10 mW/cm^2 and irradiated for 1 hour.

C[N+](C)(C)c1c(F)c(F)c(C2=C3C(=O)OC4=[N+]3[Zn]35[n]6c2ccc6-c2c(oc6c(F)c([N+](C)(C)C)c(F)c(F)c26)[N+]3=c2oc3c(F)c([N+](C)(C)C)c(F)c(F)c3c2=c2ccc([n]25)=C4c2c(F)c(F)c([N+](C)(C)C)c(F)c2F)c(F)c1F (stereo not drawn) [target product]
fluorescence spectrum region [1]: in the near-infrared region
generation of superoxide anion free radicals [2]: ability to generate the superoxide anion free radicals under irradiation
generation of singlet oxygen [3]: ability to produce singlet oxygen under irradiation
photodegradation process monitored by HPLC ([4]; 700 nm LED 2.5 mW/cm^2 for 0 min-10 min, FIG. 15): able to self-degrade and gradually be converted into the degradation product
photodegradation in solution (absorption and emission spectra during irradiation) ([4]; 700 nm LED 10 mW/cm^2, FIGS. 29-30): degraded under irradiation
degradation under irradiation (characteristic absorption at 440 nm and 710 nm) ([4]; 700 nm LED 10 mW/cm^2 for 2 min-4 min, FIG. 13): degraded under irradiation
photodegradation rate as a function of irradiation intensity ([4]; FIG. 14): accelerated with the increase in irradiation intensity
cellular phototoxicity ([5]; 0 μM-4 μM, FIGS. 16-17): relatively strong cellular phototoxicity under irradiation
IC50 ([5]; Homo sapiens, 24 h incubation, CCK-8, read-out: half-lethal concentration IC50): 1000 nM
body weight, with irradiation ([6]; 700 nm LED 100 mW/cm^2 10 min): no significant weight loss
tumor growth (tumor volume), with irradiation ([6]; 700 nm LED 100 mW/cm^2 10 min single irradiation): effectively inhibited a growth of a subcutaneous tumor
body weight, dark control ([6]; no irradiation): no significant weight loss
tumor growth (tumor volume), dark control ([6]; no irradiation): grows rapidly
body temperature after natural light (thermal imager) [7]: no significant variation
reactions / photosensitization side effects after natural light [7]: did not exhibit abnormal reactions
